For this test, the system named is Plasmodium falciparum. Description: GSK_TCMDC: Inhibition of Plasmodium falciparum 3D7 in whole erythrocytes, using parasite LDH activity as an index of growth. The test is classed as functional, organism-based. The conditions noted are these: Plasmodium falciparum, 3D7.
For the compound `CN1CCN(CC(O)CNC(=O)Nc2ccc(Br)cc2)CC1` (stereo not given), the XC50 amounted to 149 nM.
The value for `O=C(NCCCN1CCCCC1)c1ccc(Nc2nccc(Nc3ccc(Oc4ccccc4)cc3)n2)cc1` was 626 nM; that for `COc1ccc(CNC(=O)c2cnc3c(O)cccc3c2Nc2cccc(NC(=O)c3ccc(F)cc3)c2)cc1` was 996 nM; that for `CCc1cn2c3c(cc(C(=O)N[C@@H](Cc4cc(F)cc(F)c4)[C@H](O)CNC4CCOCC4)cc13)N(C)S(=O)(=O)CC2` was 33.6 nM.
`COc1ccc2nccc(NC(=O)C3(O)CCC(NCc4ncc5c(c4Cl)OCCO5)CC3)c2n1` (stereo not given) returned an XC50 of 254 nM.
The value for `Cc1sc(NC(=O)c2ccc([N+](=O)[O-])cc2Cl)c(C(N)=O)c1C` was 931 nM.
The compound `COc1ccc2c(=O)c(-c3ccc(OC(F)(F)F)cc3)c(C)[nH]c2c1` returned an XC50 of 233 nM.
In turn, `CC(=O)NCC(=O)NC1=NC(=N)N(OCc2ccc3ccccc3c2)C(C)(C)N1` gave an XC50 of 3.2 nM.
`CN1CCN(CCCN(Cc2cccc(-c3ccc(CNCc4ccc5c(c4)OCO5)cc3)c2)C(=O)CCC2CCCC2)CC1` had an XC50 of 1000 nM.
The figure for `CC(=O)c1sc2ccccc2c1O` is 880 nM; for `Cc1ccc(N2C(=O)C3C(C2=O)C2(c4ccccc4)C(=O)C3(c3ccccc3)C(c3ccccc3)=C2c2ccccc2)cc1` (stereo not given) it is 869 nM.
With `O=C1C(=Cc2c(O)ccc3ccccc23)SC(=NCc2ccccc2)N1Cc1ccccc1`, the XC50 worked out at 155 nM.
In the case of `O=C1c2ccccc2CN1CCCN1CCC(Oc2ccc(F)cc2)CC1`, the XC50 amounted to 1210 nM.
The value for `C[C@H](Cc1ccc(OCCCCCOc2ccc(C[C@@H](C)NC[C@H](O)c3cccc(Cl)c3)cc2)cc1)NC[C@H](O)c1cccc(Cl)c1` was 190 nM.
In turn, `CC(=NNc1nc2ccccc2s1)c1ccccn1` had an XC50 of 1120 nM.
`Brc1ccc(Nc2ccnc3cc(-c4nccs4)ccc23)cc1Oc1ccnc2cc(-c3nccs3)ccc12`: the XC50 was 1060 nM.
Take `Cc1cccc(OCCCCON2C(=N)N=C(N)NC2(C)C)c1C`: the XC50 was 3.2 nM.
`CC(C)CNC(=O)c1cncc(-c2cccc(CNC3Cc4ccccc4C3)c2)c1` registered an XC50 of 786 nM.
Turning to `CCNS(=O)(=O)c1ccc(Oc2ccc([N+](=O)[O-])cc2)cc1`, the XC50 was found to be 169 nM.
For `COc1ccc(NC(=O)Nc2cccc(-c3ccc(-c4nc5cccc(C)c5[nH]4)s3)c2)cc1`, the XC50 stood at 671 nM.
`Cc1cc(Nc2ccc(C(C)(C)C)cc2)c2[nH]ncc2n1`: the XC50 was determined as 1160 nM.
Take `CN(C)CCN(C)Cc1ccc(-c2ccc(NC(=O)c3cccc(Cl)c3)cc2)cc1`: the XC50 turned out to be 1140 nM.
The compound `COc1ccc(-c2csc3ncnc(Cl)c23)cc1OC` registered an XC50 of 769 nM.
Compound `CC(C)N1CCN(C(=O)c2ccc(CN(C)CCCN3CCN(c4cccc(Cl)c4Cl)CC3)s2)CC1` returned an XC50 of 994 nM.
Regarding `Cc1cc(N)c2cc(NC(=O)c3cccc4ccccc34)ccc2n1`, the XC50 stood at 844 nM.
Regarding `CC1CN(c2cnn(C/C=C/c3ccc(NC(=O)c4ccc5nonc5c4)cc3)c(=O)c2Cl)CC(C)N1` (stereo not given), the XC50 worked out at 786 nM.
For the compound `N#Cc1ccc(C(=O)Nc2ccc(Cl)c(N3CCN(CCc4ccccc4)CC3)c2)cc1`, the XC50 turned out to be 929 nM.
The figure for `COc1cc(C(=O)N2N=C(c3c(-c4ccccc4)c4cc(Br)ccc4[nH]c3=O)CC2c2cccc([N+](=O)[O-])c2)cc(OC)c1OC` (stereo not given) is 943 nM; for `O=C(Nc1ccc(-c2ccc(-c3nc4ccccc4[nH]3)s2)cc1)Nc1ccc(Cl)c(Cl)c1` it is 165 nM; for `CCC(NCc1ccc(-c2cncc(C(=O)NCC(C)C)c2)cc1)c1ccccc1` (stereo not given) it is 944 nM.
In the case of `COc1ccc2[nH]ccc(=NN=Cc3cccc(F)c3)c2c1`, the XC50 is 750 nM.
Take `CCCCCCN1CCCN(Cc2cccc(NC(=O)c3cc4ccccc4s3)c2)CC1`: the XC50 was determined as 660 nM.
With `CN1CCN(CC(=O)Nc2ccc(-c3ccc(-c4nc5ccccc5[nH]4)s3)cc2)CC1`, the XC50 is 299 nM.
The value for `O=C(Nc1cccc(C(F)(F)F)c1)c1cccc(S(=O)(=O)NC2CCCN(CC3CCCCC3)C2)c1` (stereo not given) was 857 nM.
In turn, `O=C(NC1CCCCC1)N(Cc1cccc(-c2cccc(CNC3CCCC3)c2)c1)C1CCN(Cc2ccccc2)CC1` displayed an XC50 of 736 nM.
The figure for `CCCCNCc1ccc(-c2nc(CN(CCCn3ccnc3)C(=O)NC3CC3c3ccccc3)cs2)cc1` (stereo not given) is 744 nM; for `COc1ccc(NC(=O)[C@H](Cc2ccccc2)Nc2cc(C)nc(NCCc3ccccc3OC)n2)cc1` it is 529 nM.
As for `C=CCn1c(=N)c(C(=O)NCc2ccc(F)cc2)cc2c(=O)n3cccc(C)c3nc21`, the XC50 stood at 1170 nM.
`CC(=O)Nc1ccc(C(=O)Nc2cccc(-c3cccc(-c4nc5cc(C(F)(F)F)ccc5[nH]4)c3)c2)cn1` returned an XC50 of 73.7 nM.
The figure for `Fc1ccc(-c2cc3ncnc(N4CCN(CCN5CCCC5)CC4)c3s2)cc1` is 740 nM.
As for `Cc1c(C)c2c(c(C)c1O)CC[C@@](C)(C(=O)N1CCC(CCN3CCC(c4c[nH]c5ccccc45)CC3)CC1)O2`, the XC50 amounted to 666 nM.
With `Cn1cccc1CCNCc1ccc(-c2cccc(-c3nc4cc(F)ccc4[nH]3)c2)cc1`, the XC50 was found to be 1220 nM.
On to `CNC(=O)c1cnc(Nc2ccc(N3CCN(C)CC3)cc2)nc1Nc1cccc([N+](=O)[O-])c1`, for which the XC50 came to 288 nM.
As for `O=C(Nc1ccccc1)N(Cc1cccc(-c2ccc(CNCc3ccc4c(c3)OCO4)cc2)c1)C1CCN(Cc2ccccc2)CC1`, the XC50 came out at 325 nM.
Compound `O=S(=O)(NCCN1CCCC1)c1ccc(-c2cccc(CNCc3ccsc3)c2)s1` yielded an XC50 of 896 nM.
The value for `Cc1ccc(-c2ccc3c(c2)C=C(C(=O)NC2CCN(CCNC(=O)c4cccc(C(F)(F)F)c4)CC2)CCC3)cc1` was 512 nM.
`O=C(/C=C/c1ccc(Cl)cc1Cl)NCCCCCN1CCC(c2c[nH]c3ccccc23)CC1` returned an XC50 of 941 nM.
In turn, `Cc1nc2c(-n3cc(Cn4ccnc4)c4ccccc43)ncnc2n1-c1ccc(Cl)cc1Cl` had an XC50 of 994 nM.
On to `Fc1ccc2[nH]c(-c3cccc(-c4cccc(CNCc5ccccc5)c4)c3)nc2c1`, for which the XC50 came out at 283 nM.
The compound `COc1ccccc1CCNc1ncnc2c1[nH]c1ccc(F)cc12` yielded an XC50 of 837 nM.
Compound `CC(C)C[C@H](NC(=O)[C@H](Cc1ccccc1)N(C[C@H](Cc1ccccc1)NC(=O)OC(C)(C)C)C(=O)C(F)(F)F)C(=O)NC1CCN(Cc2ccccc2)CC1` returned an XC50 of 530 nM.
On to `Cn1cnc2c(SCc3ccccc3OCc3ccccc3)ncnc21`, for which the XC50 was found to be 922 nM.
Take `CCCc1cc(OC)c(CC2c3cc(O)c(C)cc3CCN2C)cc1OC` (stereo not given): the XC50 came out at 701 nM.
On to `NC(=O)c1cccc(C(=O)Nc2cccc(-c3cccc(-c4nc5ccccc5[nH]4)c3)c2)c1`, for which the XC50 is 548 nM.
`CN(Cc1cccc(O)c1)C1CCCN(c2cc(NC(=O)c3ccc(F)cc3)ccn2)C1` (stereo not given) returned an XC50 of 1070 nM.
For the compound `CCc1ccc(N2C(=O)C3C(Cc4ccc(OC(C)(C)C)cc4)NC4(C(=O)N(Cc5ccccc5)c5ccc(F)cc54)C3C2=O)cc1` (stereo not given), the XC50 was 800 nM.
The compound `COc1ccc2nc(-c3ccc(F)cc3)cc([C@@H](O)[C@@H]3C[C@@H]4CCN3CC4C=NO)c2c1` (stereo not given in full) had an XC50 of 248 nM.
Regarding `CCC1N=C(N)N=C(N)N1OCc1ccc(Cl)c(Cl)c1` (stereo not given), the XC50 came to 3.35 nM.
`COc1ccc(CNc2nccc3ccc(-c4ccc(N)nc4)cc23)cc1` showed an XC50 of 979 nM.
The value for `Fc1ccc(-c2oc(C3CCN(CCc4ccc(-c5noc(=S)[nH]5)cc4)CC3)nc2COCC(F)(F)F)cc1` was 418 nM.

The values above are taken from ChEMBL document CHEMBL1157539, “Thousands of chemical starting points for antimalarial lead identification” (Nature, 2010).
